Reference: patent publication US12612411B1, “Imidazopyrazine derivatives, process for preparation thereof, and their uses as luciferins” (INSTITUT PASTEUR, priority 2017, dated 2026)

Key:
[1] = Acidic hydrolysis of imidazo[1,2-a]pyrazin-3-yl acetate into the luciferin, LC/MS monitoring; format: physicochemical; settings: DMSO / acidic ethanol (HCl), 50° C.
Procedure: FIG. 1 illustrates the HPLC profiles over time for the acetyl hydrolysis of P-21 (M=451) into the corresponding luciferin Q-12 (M=409). Obtained on an Agilent apparatus, with a 3.5 μm XDB-C18 column and a water/methanol gradient (containing 5 mM ammonium formate, from 95-5 to 5-95 in 3.5 min, 3.5 min at 5-95, and then back at 95-5 in 0.5 min), UV monitoring set at […].
General protocol for the generation of solutions of imidazo[1,2-a]pyrazin-3(7H)-one Q by acidic hydrolysis of imidazo[1,2-a]pyrazin-3-yl acetate derivatives P. The considered acetate P (1 mg) was dissolved in DMSO (0.2 mL) and then diluted by adding a solution of acidic ethanol (0.3 ml) made from the addition of 37% hydrochloric acid (100 μl) on 100% ethanol (12 mL). This 0.5 mL solution was incubated at 50° C. for 2 hours to give a stock solution which was then stored at −80° C. […] Nota: these conditions are only adapted to the hydrolysis of the protecting group (as defined above) of the oxygen on position 2 of the imidazo[1,2-a]pyrazine ring system and not to the hydrolysis of any additional acetyl groups eventually present elsewhere on the substrate of this reaction.

[2] = test system: protein chimeras fused to the nanoKAZ in transiently transfected HEK and Jurkat cell lines, and primary human T-cells; test: In cellulo bioluminescence imaging with a light microscope; format: cell-based
Description: FIG. 5 compares expression and location of protein chimeras fused to the nanoKAZ in transiently transfected HEK and Jurkat cell lines, and primary human T-cells: the cytokine receptor IL7Rα:nanoKAZ at the membrane (top), the enconsin tubulin binding protein EMTB:nanoKAZ associated with microtubules (middle), the transcription factor STAT5a:nanoKAZ dense throughout the cytoplasm and faint in the nucleus (bottom).
The acquisition of bioluminescence using a light microscope provides a quantitative measurement of light emission cell by cell, the main advantage. This is meaningful especially when the transfection efficiency is low in the case of nanoKAZ expression provided by plasmids. […] The higher is the bioluminescence efficiency, the lower is the exposure time and the lower is the sensitivity required for the detector or camera. NanoKAZ with developed substrates such as Q-3 or Q-12 opens the bioluminescence imaging to standard light microscope. The lower the exposure time, the higher the resolution, which is impeded by the motion of living cells. Any gain in light emission enhances the quality of images. Luciferase reporters or fragments can be fused to proteins targeting the cell surface, cytoplasm, organelles, nucleus or exosomes and can be carried by virus, host-infecting cells or agents, biologic complexes, beads or any particles. […]

nanoKAZ [3] = biological target: T1, nanoKAZ (Oplophorus gracilirostris, UniProt Q9GV45, A31E/A60N/A81I/F95D/I117V/K70R/L54V/L99Q/M102K/N193R/P142E/Q151K/Q38R/Q45L/V71I/Y165I); test: Michaelis-Menten parameters of nanoKAZ from Lineweaver-Burk representation; format: biochemical; settings: for Vmax: extrapolated from Lineweaver-Burk, constant enzyme concentration
T1 construct: luciferase catalytic domain (nanoKAZ, 19 kDa) from the Oplophorus-derived luciferase
T1 sequence (Q9GV45 other isoform, or with tags, fused parts or gaps with the stated changes): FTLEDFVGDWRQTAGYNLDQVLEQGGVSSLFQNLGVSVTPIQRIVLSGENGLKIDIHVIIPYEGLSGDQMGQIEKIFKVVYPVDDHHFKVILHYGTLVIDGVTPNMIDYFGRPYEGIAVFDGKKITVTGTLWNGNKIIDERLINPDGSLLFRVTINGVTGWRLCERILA
Description: The two dotted lines (linear regression) are converging to the same intercept with the x-axis (−1/Km) and different intercepts with the y-axis (1/Vmax). The equations of the two linear regressions are indicated and the corresponding correlation factors (R^2) with the experimental data are reported.
Considering the hypothesis of a Michaelis-Menten mechanism for the nanoKAZ, the Km and Vmax were extrapolated from the Lineweaver-Burk representation of the enzyme activity catalyzing either Q-1 or Q-3. […] The data have been fitted with linear regression with satisfying high correlation factors (R). The Km are the same for both substrates (Km=2 μM) whereas the Vmax is 3-times lower for Q-1 (0.6·10^6 RLU/sec) than for Q-3 (2.0·10^6 RLU/sec).

nanoKAZ [4] = biological target: T1, nanoKAZ; test: Bioluminescence emission spectra; format: biochemical
Description: (§1) Furimazine (Q-1) and derivatives have emission spectra centred on 460 nm but present large peaks bleeding beyond 580 nm. The bioluminescence obtained with the analogue Q-3 provides photons with 10% of them having a wavelength beyond 560 nm up to 600 nm. This wide spectra emission toward red is thus allowing the use of the nanok AZ/furimazine for in vivo imaging. The light emission beyond 580 is thousands times higher than red emitting firefly or beetle luciferases. IL7:nanoKAZ and analogue Q-3 were injected in mice.

nanoKAZ luciferase = biological target: T2, nanoKAZ luciferase (Oplophorus gracilirostris, UniProt Q9GV45, A31E/A60N/A81I/F95D/I117V/K70R/L54V/L99Q/M102K/N193R/P142E/Q151K/Q38R/Q45L/V71I/Y165I); test: In vitro bioluminescence screening of imidazo[1,2-a]pyrazin-3(7H)-ones with nanoKAZ expressed in vitro (96-well luminometer, 2 h kinetic); format: biochemical; settings: furimazine = 1
T2 construct: luciferase catalytic domain (nanoKAZ, 19 kDa) from the Oplophorus-derived luciferase; host or cells: cell-free: 1-Step Human Coupled IVT Kit, pT7CFE1-based vector
T2 sequence (Q9GV45 other isoform, or with tags, fused parts or gaps with the stated changes): as above
Method in brief: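 nanoKAZ made by human coupled IVT, diluted 400-fold then 1/20 in DPBS + 0.1% Tween 20; luciferins generated in situ by acid hydrolysis of O-acetyl precursors (DMSO/acidic ethanol, 50 °C, 2 h). Luminescence followed kinetically for 2 h; max intensity, signal half-life and 10-min and 2-h AUC normalized to furimazine.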

[5] = cited from earlier work
nanoKAZ [6] = biological target: T1, nanoKAZ; test: Dynamic range of nanoKAZ bioluminescence versus serial enzyme dilutions; format: biochemical; settings: constant volume 100 μL, constant substrate concentration
Procedure: FIG. 3 illustrates dynamic range (relative units (RLU) versus serial dilutions) of nanok AZ, which was plotted using the imidazo[1,2-a]pyrazin-3(7H)-one Q-3.
As depicted in FIG. 3, the dynamic range of nanoKAZ was assessed using luciferin Q-3. The enzyme was diluted three by three times and the bioluminescence has been measured on a constant volume (100 (L) and at constant concentration of the substrate. The bioluminescence is linear with the enzyme concentration over 5 orders of magnitude, overwhelming the detection system. This range can be increase by two orders of magnitude by decreasing 2 times the volume for high enzyme concentration and by increasing two times the volume for low enzyme concentration.

IL7:nanoKAZ = test: In vivo bioluminescence imaging (Ivis) after injection of IL7:nanoKAZ and substrate; settings: IL7:nanoKAZ and substrate injected in mice
Description: as §1

| time to complete hydrolysis into the luciferin Q-12 [1] | Structure (SMILES) | extension of experience times to get the same quality as with nanoKAZ/analogue Q-3 ([2]; nanoKAZ/furimazine versus nanoKAZ/Q-3) [folds] | Vmax, times lower than for Q-3 (nanoKAZ [3]; Q-1 versus Q-3) [times] | Vmax (nanoKAZ [3]) | emission spectra centre (nanoKAZ [4]) [nm] | V1: maximum intensity, normalized using furimazine (Q-1) as a reference (nanoKAZ luciferase; Table 1) | V3: area under the curve for ten minutes, normalized using furimazine (Q-1) as a reference (nanoKAZ luciferase; Table 1) | V4: area under the curve for two hours, normalized using furimazine (Q-1) as a reference (nanoKAZ luciferase; Table 1) | V3: area under the curve for 2 hours, normalized using furimazine (Q-1) as a reference (nanoKAZ luciferase; second table) | V4: area under the curve for ten minutes, normalized using furimazine (Q-1) as a reference (nanoKAZ luciferase; second table) | V1: maximum intensity, normalized using furimazine (Q-1) as a reference (nanoKAZ luciferase; second table, luciferins made in situ from O-protected P) | storage stability ([5]; commercially available luciferins) | permitted storage time at 4° C. ([5]; recommended storage conditions) | light emission in live-cell images compared with Q-1 ([2]; images acquired for one second from live cells, FIG. 5) | photons having a wavelength beyond 560 nm up to 600 nm (nanoKAZ [4]) [%] | range over which bioluminescence is linear with the enzyme concentration (nanoKAZ [6]) | in vivo bioluminescence image quality (IL7:nanoKAZ) |
| --- | --- | --- | --- | --- | --- | --- | --- | --- | --- | --- | --- | --- | --- | --- | --- | --- | --- |
| complete reaction in less than two hours | CCc1ccc(Cc2nc3c(Cc4ccccc4)nc(-c4ccccc4)cn3c2OC(C)=O)o1 [P-21, 8-Benzyl-2-((5-ethylfuran-2-yl)methyl)-6-phenylimidazo[1,2-a]pyrazin-3-yl acetate] |  |  |  |  |  |  |  |  |  |  |  |  |  |  |  |  |
|  | O=c1c(Cc2ccco2)nc2c(Cc3ccccc3)[nH]c(-c3ccccc3)cn1-2 [Q-1, 8-benzyl-2-(furan-2-ylmethyl)-6-phenylimidazo[1,2-a]pyrazin-3(7H)-one, reference compound] | 3 | 3 | 0.6·10^6 RLU/sec | 460 | 1 | 1 | 1 | 1 | 1 | 1 | very weak storage stability | up to two weeks only |  |  |  |  |
|  | Cc1ccc(Cc2nc3c(Cc4ccccc4)[nH]c(-c4ccccc4)cn-3c2=O)o1 [Q-3, 8-benzyl-2-((5-methylfuran-2-yl)methyl)-6-phenylimidazo[1,2-a]pyrazin-3(7H)-one] |  |  | 2.0·10^6 RLU/sec |  | 2.7 | 2.39 | 1.3 |  |  |  |  |  | gain of light emission | 10 | 5 orders of magnitude | Quantitative images of high quality were acquired |
